16 compounds from patent publication US10258603B2 (priority 2014, dated 2019) can be followed below.

pIC50: −log10 of the molar value.

As usually defined, the IC50 is the concentration at which inhibition is half-maximal. In general, pIC50 refers to −log10 of the IC50, conventionally taken in molar units.

The first assay deals with T1, CECR2 (Homo sapiens, UniProt Q9BXF3).
T1 construct: 424-538 was cloned, expressed, and purified to homogeneity; Flag; made in house
T1 sequence (Q9BXF3 424-538 limits assumed): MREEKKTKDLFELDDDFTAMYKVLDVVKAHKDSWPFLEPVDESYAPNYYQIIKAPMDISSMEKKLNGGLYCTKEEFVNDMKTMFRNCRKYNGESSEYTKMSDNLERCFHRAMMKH
The assay can be described thus: CECR2 TR-FRET Binding Assay. The following applies: IC50 (uM). An excerpt: IC50 Measurements for Inhibitors Using CECR2 TR-FRET Binding Assay
In turn, `C=CCn1cc(C(=O)N(C)C2CCN(c3cc(-n4cccn4)ncn3)CC2)c2cc[nH]c2c1=O` [Example 170, 6-allyl-N-methyl-7-oxo-N-[1-(6-pyrazol-1-ylpyrimidin-4-yl)-4-piperidyl]-1H-pyrrolo[2,3-c]pyridine-4-carboxamide] gave an IC50 of 0.042 µM.

The same assay, now with this note: read-out: IC50.
Consider `C=CCn1cc(C(=O)N(C)C2CCN(c3cc(C)nc(C4CC4)n3)CC2)c2cc[nH]c2c1=O` [Example 168, 6-allyl-N-[1-(2-cyclopropyl-6-methyl-pyrimidin-4-yl)-4-piperidyl]-N-methyl-7-oxo-1H-pyrrolo[2,3-c]pyridine-4-carboxamide], for which the pIC50 is 7.38.

In the case of `C=CCn1cc(C(=O)N(C)C2CCN(c3cncc(-n4cccn4)n3)CC2)c2cc[nH]c2c1=O` [Example 169, 6-allyl-N-methyl-7-oxo-N-[1-(6-pyrazol-1-ylpyrazin-2-yl)-4-piperidyl]-1H-pyrrolo[2,3-c]pyridine-4-carboxamide], the pIC50 is 7.64. Same read-out and setting: for `CN(C(=O)c1cn(C)c(=O)c2[nH]ccc12)C1CCN(c2ccccc2)CC1` [Example 172, N,6-dimethyl-7-oxo-N-(1-phenyl-4-piperidyl)-1H-pyrrolo[2,3-c]pyridine-4-carboxamide] the value was 6.00; for `Cc1cccc(N2CCC(N(C)C(=O)c3cn(C)c(=O)c4[nH]ccc34)CC2)c1` [Example 173, N,6-dimethyl-N-[1-(m-tolyl)-4-piperidyl]-7-oxo-1H-pyrrolo[2,3-c]pyridine-4-carboxamide], 6.00. On the same count and under the same terms, for `CN(C(=O)c1cn(C)c(=O)c2[nH]ccc12)C1CCN(c2cccc(C(F)(F)F)c2)CC1` [Example 174, N,6-dimethyl-7-oxo-N-[1-[3-(trifluoromethyl)phenyl]-4-piperidyl]-1H-pyrrolo[2,3-c]pyridine-4-carboxamide] the value was 6.23. Same read-out and setting: for `CN(C(=O)c1cn(C)c(=O)c2[nH]ccc12)C1CCN(c2ccc(C(F)(F)F)cc2)CC1` [Example 175, N,6-dimethyl-7-oxo-N-[1-[4-(trifluoromethyl)phenyl]-4-piperidyl]-1H-pyrrolo[2,3-c]pyridine-4-carboxamide] the value was 6.12; for `Cc1ccc(N2CCC(N(C)C(=O)c3cn(C)c(=O)c4[nH]ccc34)CC2)cc1` [Example 176, N,6-dimethyl-7-oxo-N-[1-(p-tolyl)-4-piperidyl]-1H-pyrrolo[2,3-c]pyridine-4-carboxamide], 6.03. As for `CCc1cccc(N2CCC(N(C)C(=O)c3cn(C)c(=O)c4[nH]ccc34)CC2)c1` [Example 177, N-[1-(3-ethylphenyl)-4-piperidyl]-N,6-dimethyl-7-oxo-1H-pyrrolo[2,3-c]pyridine-4-carboxamide], the pIC50 is 6.16. Consider `CCc1ccc(N2CCC(N(C)C(=O)c3cn(C)c(=O)c4[nH]ccc34)CC2)cc1` [Example 178, N-[1-(4-ethylphenyl)-4-piperidyl]-N,6-dimethyl-7-oxo-1H-pyrrolo[2,3-c]pyridine-4-carboxamide], for which the pIC50 is 6.13.

Turning to `CN1CCC(CCN(C)C(=O)c2cn(C)c(=O)c3[nH]ccc23)CC1` [Example 181, N,6-dimethyl-N-[2-(1-methyl-4-piperidyl)ethyl]-7-oxo-1H-pyrrolo[2,3-c]pyridine-4-carboxamide], the pIC50 was 6.14. Still for that read-out and setting: for `CCN1CCC(CCN(C)C(=O)c2cn(C)c(=O)c3[nH]ccc23)CC1` [Example 182] the value was 6.39.

Regarding `CC(C)N1CCC(CCN(C)C(=O)c2cn(C)c(=O)c3[nH]ccc23)CC1` [Example 183], the pIC50 was 6.31.

On to `CN(CCC1CCN(C2CCC2)CC1)C(=O)c1cn(C)c(=O)c2[nH]ccc12` [Example 184], for which the pIC50 is 6.33. On the same count and under the same terms, for `COCCN1CCC(CCN(C)C(=O)c2cn(C)c(=O)c3[nH]ccc23)CC1` [Example 185] the value was 6.04. The same measure, in the same setting: the value for `CN(CC1CCN(CC2CCCC2)CC1)C(=O)c1cn(C)c(=O)c2[nH]ccc12` [Example 187, N-[[1-(cyclopentylmethyl)-4-piperidyl]methyl]-N,6-dimethyl-7-oxo-1H-pyrrolo[2,3-c]pyridine-4-carboxamide] was 6.10.
